Measured values published in patent publication US4440757A, “Pharmaceutical composition comprising derivative of aminobenzoic acid for regulating prostaglandin” (priority 1978, dated 1984).

Experiments:
[1] = system: Salmonella typhimurium TA 100; test: Mutagenicity, reversion assay, TA 100; format: cell-based; conditions: 5,000 μg/plate; control 149
Method: (§1) (ii) The strains TA 98 and TA 100 (both are histidine requiring) of Salmonella typhimurium were used in the reversion assay.
(§2) Into 2 ml of a soft agar culture medium (the medium itself contains 6 g of sodium chloride and 6 g of agar in 1000 ml of distilled water) to which one tenth by volume of an aqueous solution of 0.5 mM of biotin and 0.5 mM of histidine had been added, 0.1 ml of the bacterial suspension and 0.1 ml of an aqueous solution of the present substance were admixed and the mixture was layered on the minimum agar culture medium. After 2 days of incubation at 37° C., the number of revertant colonies was counted. Furylfuramide (AF-2) was used as the positive control.

[2] = system: Salmonella typhimurium TA 98; test: Mutagenicity, reversion assay, TA 98; format: cell-based; conditions: 5,000 μg/plate; control 13
Method: as §1, §2

dog's stomach = format: in vivo, Beagle dog; conditions: dog, in vivo
Method: Five grams of the present substance (each of Specimens Nos. 1, 2, 3, 4, 5, 6, 7, 8, 9, 10 and 11) and of aspirin were respectively administered to each Beagle of body weight of 9 to 12 kg as an aqueous suspension in distilled water of adjusted pH of 3, and after 90 min of the administration, the state of hemorrhage in the dog's stomach was examined.

[3] = system: lymphocytes from the spleen of a BALB/C mouse; test: PGs metabolism of 3H-arachidonic acid taken into lymphocytes; format: cell-based; set-up: key: -: no change was observed; ±: change was slightly observed; +: change was clearly observed; conditions: 500 μg/ml, 37° C., 60 min
Method: After adjusting the lymphocytes taken from the spleen of a BALB/C mouse to a concentration of 1×10^7 cells/ml, 2 μCi of ^3 H-arachidonic acid was added and the mixture was incubated at a temperature of 37° C. for 90 min. The incubated lymphocytes were washed three times with the culture medium. After again ajusting the cells to a concentration of 1×10^7 cells per ml, the culture were poured into four siliconized test tubes in an amount of 2 ml/tube. Two test tubes were used as control, and into each of the remaining two test tubes, 500 μg of the present substance, in this Example, Specimen No. 7 was added, and then the four test tubes were incubated at 37° C. for 60 min. After incubation, the test tubes were centrifugated at 0° C. for 5 min. at 1,200 rpm.
The thus obtained pellets of cells were taken into a vial containing 2 ml of the culture medium and after adding 5 ml of petroleum ether, the vial was shaken and the ether layer was removed, the remaining aqueous layer being adjusted to pH of 3.5 by aqueous 0.5 N hydrochloric acid solution.
The aqueous acidic solution was extracted three times with each 5 ml of ether, and the ether extract was dried to solid. The solid material was subjected to esterification by a solution of diazomethane. The esterified reaction mixture was subjected to thin-layer chromatography and was developed with a 90:50:20:100 (by volume) mixed solvent of ethyl acetate:iso-octane:acetic acid:water. The identification of the thus appeared spots on the chromatogram was carried out by using the following authentic specimens of PGD2, PGE2, PGF2-α and 6-keto-PGF1-α. The silicagel layer of the separated chlomatogram was scraped out and dissolved into a liquid for the liquid scintillator to be counted. From the change of the counts the change of PGS was determined.

[4] = system: spontaneously hypertensive (SHR) male rats; test: Effect of indomethacin on the hypotensive action; format: in vivo, rat (SHR); conditions: 100 mg/kg p.o.; indomethacin 2.5 mg/kg before and after
Description: It is known that PGs are produced from arachidonic acid, and cyclooxygenase participates in the conversion of arachidonic acid to PGG2, that indomethacin inactivates the above-mentioned cyclooxygenase and further that the […] of PGs is completely stopped by the administration of indomethacin.
Accordingly, the transition of blood pressure of the spontaneously hypertensive (SHR) male rats 30 to 40 weeks after birth was compared in both cases (1) where only the present substance was administered at a rate of 100 mg/kg and (2) where indomethacin was administered 2 times at a rate of 2.5 mg/kg/time before and after the administration of the present substance. The present substance, Specimen No. 7, was dissolved into distilled water or dispersed in an aqueous 2% solution of carboxymethylcellulose, and forcibly administered orally. Indomethacin was dispersed in an aqueous 2% solution of carboxymethylcellulose, and the dispersion was also forcibly administered orally, one hour before and after the administration of the present substance.

[5] = system: human dinuclear leukemia J-111 strain; test: PGs in culture medium of human leukemia cells; format: cell-based; conditions: 50, 500 or 5,000 μg/ml, 7 days
Method: To each 10 ml of a culture medium prepared by adding 10% of bovine foetal serum and one of the present substance, Specimen No. 7, at a concentration of 50, 500 or 5,000 μg/ml to Eagle's culture medium and placed in a polystyrene flask of 75 cm^2 in bottom surface, 5×10^5 cultured cells of human dinuclear leukemia J-111 strain were inoculated and cultured at 37° C. under a mixed atmosphere of 5% by volume of gaseous […] and 95% by volume of air for 7 days. During the cultivation, the culture medium was replaced on the second day and the fourth day with respective fresh ones, and each spent medium was subjected to centrifugation as soon as possible at a temperature of 4° C. at 1,500 rpm to obtain each supernatant liquid of cultured medium. The content of PGE and PGF2-α in each supernatant liquid was determined by ^3 H-Prostaglandin E Radioimmunoassay Kit and ^3 H-Prostaglandin F Radioimmunoassay Kit (manufactured by Clinical assay Co. U.S.A.).

male Sprague-Dowley rats = test: Foot-oedema induced by carrageenin and PGE1; format: in vivo; conditions: 1000 mg/kg p.o.; with carrageenin + PGE1; 60 min after carrageenin
Method: The three groups of male Sprague-Dowley rats of total six groups, the respective present substances, Specimens Nos. 4, 7 and 8 were administered forcibly by oral route at a rate of 1000 mg/kg, the other three groups of the same kind of rats being administered nothing at this time.
After 60 min of the administration, 0.1 ml of an aqueous solution of carrageenin (1 mg) and PGE1 (0.1 μg) was injected onto the hind paw of the four groups of the rats including the three groups administered with the present substance. To one group of remaining two groups not administered with the present substance, 0.1 ml of an aqueous solution containing only carrageenin at 1% was injected, and to the other one group not administered with the present substance, an aqueous solution containing only PGE1 was injected.
The volume of the thus swollen foot of the groups of the thus treated rats was measured by the water-displacement method, and the results are shown in Table 17 by the increment of the volume of foot as compared to the volume of foot before the treatment as percentage.

O=C(O)c1ccc(NC2OC[C@@H](O)[C@H](O)[C@H]2O)cc1 (stereo partly drawn) [Specimen No. 7, Sodium p-aminobenzoate-N--D-xyloside]
Number of revertant colonies TA 100 [1]: 58 number per plate
Number of revertant colonies TA 98 [2]: 4 number per plate
hemorrhage in the stomach (dog's stomach): no hemorrhage in the stomach was found
Change of 6-keto-PGF1-α [3]: ±
Change of PGD2 [3]: +
Change of PGE2 [3]: +
Change of PGF2-α [3]: ±
hypotensive effect with indomethacin (FIG. 9) [4]: disappeared
rate of decrease of PGE (FIG. 13) [5]: the rate of decrease of PGE was raised as the concentration of the present substance was increased
rate of increase of PGF2-α (FIG. 12) [5]: the rate of increase of PGF2-α was reduced as the concentration of the present substance was increased
Percentage increment of volume of foot (male Sprague-Dowley rats): 28.2%

O=C(O)c1ccc(NC2O[C@H](CO)[C@@H](O)[C@H](O)[C@@H]2O)cc1 (stereo partly drawn) [Specimen No. 4, Sodium p-aminobenzoate-N--D-mannoside]
Number of revertant colonies TA 100 [1]: 138 number per plate
Number of revertant colonies TA 98 [2]: 5 number per plate
hemorrhage in the stomach (dog's stomach): no hemorrhage in the stomach was found
Percentage increment of volume of foot (male Sprague-Dowley rats): 32.5%

C[C@@H]1OC(Nc2ccc(C(=O)O)cc2)[C@H](O)[C@H](O)[C@H]1O (stereo partly drawn) [Specimen No. 8, Sodium p-aminobenzoate-N--L-rhamnoside]
Number of revertant colonies TA 100 [1]: 73 number per plate
Number of revertant colonies TA 98 [2]: 4 number per plate
hemorrhage in the stomach (dog's stomach): no hemorrhage in the stomach was found
Percentage increment of volume of foot (male Sprague-Dowley rats): 29.7%
